Experimental data published in patent publication US10087156B2, “Methods and compositions related to retinoid receptor-selective pathway” (Sanford Burnham Prebys Medical Discovery Institute, priority 2010, dated 2018).
Entries after “also recorded” stand apart in the source; their conditions may differ.

Columns and labels:
[1] = target: T1, interaction of p85α with RXRα/Δ80 (Homo sapiens, UniProt P19793); assay: Co-immunoprecipitation of Flag-p85α and Myc-RXRα/Δ80 in A549 cells; assay type: cell-based; conditions: 50 μM, with or without TNFα
T1 construct: expressed in transfected cells; host or cells: A549 human lung cancer cells
T1 sequence (P19793 81-462 limits assumed, stated change not applied): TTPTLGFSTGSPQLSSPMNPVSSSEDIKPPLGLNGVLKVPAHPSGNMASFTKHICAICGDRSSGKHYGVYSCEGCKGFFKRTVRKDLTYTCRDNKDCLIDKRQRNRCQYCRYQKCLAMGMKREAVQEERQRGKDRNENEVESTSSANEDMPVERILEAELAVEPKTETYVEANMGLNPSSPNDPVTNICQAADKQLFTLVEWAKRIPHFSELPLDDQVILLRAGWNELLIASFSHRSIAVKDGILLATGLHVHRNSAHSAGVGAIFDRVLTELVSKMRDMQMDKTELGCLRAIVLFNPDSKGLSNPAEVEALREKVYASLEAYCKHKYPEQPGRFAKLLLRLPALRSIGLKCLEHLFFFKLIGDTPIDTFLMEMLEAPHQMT
Procedure: Caco-2 and MEF cells were treated with the indicated concentration of Sulindac or K-80003 for 30 min, then stimulated with all-trans-RA (10^-7 M) for 15 min. AKT activation was analyzed by immunoblotting. PC3 cells transfected with RXRα or RARγ siRNA were pre-treated with K-80003 (50 μM) for 1 hr before exposed to TNFα (10 ng/ml) for 30 min (pRXRα: phosphorylated RXRα). A549 cells were transfected with Flag-p85α and Myc-RXRα/[…], treated with Sulindac (50 μM) or K-80003 (50 μM) for 1 hr, exposed to TNFα for 30 min, and analyzed by coimmunoprecipitation using an anti-Flag antibody. […] (FIG. 8C). Reducing RXRα expression by siRNA largely impaired the inhibitory effect of K-80003 on AKT activation in PC3 cells. […] Thus, inhibition of AKT activation by K-80003 was also dependent on RXRα expression (FIG. 8B). For the CoIP assay, cells or cells transfected with indicated expression vectors were suspended in lysis buffer (50 mM Tris-HCl, pH 7.4; 150 mM NaCl; 20 mM EDTA; 1% NP-40; 1 mM PMSF; […] Leupeptin; […] Aprotinin; 0.1 mM Na3VO4; and 1 mM DTT). […] Immunoreactive products were detected by chemiluminescence with an enhanced chemiluminescence system (ECLTM) (Amersham Biosciences, Amersham, UK).

[2] = Preclinical bioavailability and pharmacokinetics; assay type: in vivo
Procedure: Preclinical studies of K-80003 were performed, including the investigation of toxicity, bioavailability, and pharmacokinetics.

ZR-75-1 cells = assay: PARP cleavage with TNFα by immunoblotting; assay type: cell-based, human; conditions: K-80003 50 μM, Sulindac 75 μM, 6 hr
Procedure: ZR-75-1 cells were treated with TNFα and/or Sulindac (75 μM) or K-80003 (50 μM) for 6 hr and analyzed by immunoblotting.

RXRα LBD = RXRα LBD (Homo sapiens, UniProt P19793); assay: 19F NMR binding assay; conditions: 100 μM compound, 10 μM RXRα LBD
Chain of RXRα LBD (P19793 227-458 limits assumed): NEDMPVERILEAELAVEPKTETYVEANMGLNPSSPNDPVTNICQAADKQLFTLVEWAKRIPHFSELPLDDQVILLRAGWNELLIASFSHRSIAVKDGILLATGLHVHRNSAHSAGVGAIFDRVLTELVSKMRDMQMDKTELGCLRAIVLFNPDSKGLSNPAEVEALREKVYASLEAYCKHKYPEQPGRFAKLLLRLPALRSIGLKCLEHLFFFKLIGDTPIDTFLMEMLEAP

AKT = assay: Basal AKT activation by immunoblotting; assay type: cell-based; conditions: various cancer cell lines incl. SW480 and HCT116, 100 μM, 1 hr
Procedure: HepG2, SW480, RAW264.7, HCT116, LNCaP, PC3, ZR-75-1, and HaCat cells were starved overnight and treated with Sulindac (100 μM) for 1 hr and analyzed for AKT activation by immunoblotting (FIG. 3A). HepG2 cells were also transfected with RXRα siRNA for 48 hours, treated with Sulindac (100 μM) for 1 hour, and analyzed for AKT activation and RXRα expression by immunoblotting (FIG. 3B).
For immunoblotting, cell lysates were boiled in SDS sample buffer, resolved by SDS-polyacrylamide gel electrophoresis, and transferred to nitrocellulose. After transfer, the membranes were blocked in 5% milk in TBST (10 mM Tris-HCl, pH. 8.0, 150 mM NaCl, 0.05% Tween 20) containing antibody. The membranes were then washed three times with TBST, then incubated for 1 hr at room temperature in 5% milk in TBST containing horseradish peroxide-linked anti-immunoglobulin.

COX = conditions: Haanen, 2001; cited from earlier work
HepG2 cells = assay: Caspase-8 activation by anti-cleaved caspase-8 immunostaining; assay type: cell-based; conditions: TNFα and Sulindac
Procedure: PC3 cells transfected with CA-AKT or DN-AKT were treated with TNFα and/or Sulindac, and analyzed by immunoblotting (FIG. 6F). Activation of caspase-8 (FIG. 6G) and Bax (FIG. 6H) by Sulindac and TNFα. HepG2 cells transfected with CA-AKT were treated with TNFα and Sulindac, and immunostained with anti-cleaved caspase-8 or Bax/6A7 antibody. […] Sulindac/TNFα-induced PARP cleavage was inhibited by transfection of constitutive-active AKT (CA-AKT) but enhanced by transfection of dominant-negative AKT (DN-AKT) (FIG. 6F). Consistently, induction of apoptosis (FIG. 17B) and activation of caspase-8 (FIG. 6G) and Bax (FIG. 6H) by Sulindac/TNFα combination was inhibited by CA-AKT.

RXRα/TRα heterodimers = target: T2, RXRα/TRα heterodimers (Homo sapiens, UniProt P19793); assay: TREpal2-tk-CAT reporter assay in CV-1 cells; assay type: cell-based; conditions: T3 10^−7 M
T2 construct: expressed in transfected cells; host or cells: CV-1 green monkey kidney cells
T2 sequence (P19793 whole entry): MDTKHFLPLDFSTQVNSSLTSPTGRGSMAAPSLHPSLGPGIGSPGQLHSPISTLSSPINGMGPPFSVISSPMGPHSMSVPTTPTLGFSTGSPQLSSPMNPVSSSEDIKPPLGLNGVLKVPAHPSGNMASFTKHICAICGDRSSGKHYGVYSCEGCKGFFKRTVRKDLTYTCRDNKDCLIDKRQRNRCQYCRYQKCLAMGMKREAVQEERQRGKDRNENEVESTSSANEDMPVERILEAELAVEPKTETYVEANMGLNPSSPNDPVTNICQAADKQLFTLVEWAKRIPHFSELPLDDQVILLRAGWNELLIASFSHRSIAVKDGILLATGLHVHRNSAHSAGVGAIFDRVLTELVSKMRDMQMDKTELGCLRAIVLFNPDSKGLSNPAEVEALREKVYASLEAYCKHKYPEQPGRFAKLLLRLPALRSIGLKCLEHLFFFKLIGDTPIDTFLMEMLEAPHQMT
T2 sequence (P10827 1-410 isoform P10827-2 partner): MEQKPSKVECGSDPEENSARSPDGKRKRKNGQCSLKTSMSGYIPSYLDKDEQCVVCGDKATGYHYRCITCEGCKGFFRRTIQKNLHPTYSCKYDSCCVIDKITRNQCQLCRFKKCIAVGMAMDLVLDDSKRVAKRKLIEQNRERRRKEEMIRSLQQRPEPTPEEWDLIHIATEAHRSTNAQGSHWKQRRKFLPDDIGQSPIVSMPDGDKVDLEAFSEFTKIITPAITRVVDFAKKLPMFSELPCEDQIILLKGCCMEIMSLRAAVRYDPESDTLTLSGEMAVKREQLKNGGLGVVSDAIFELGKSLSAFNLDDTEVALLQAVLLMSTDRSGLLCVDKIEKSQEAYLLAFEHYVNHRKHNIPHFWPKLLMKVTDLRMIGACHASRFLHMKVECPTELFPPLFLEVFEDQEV
Procedure: Receptor expression vectors and a reporter gene (TREpal2-tk-CAT for RXRα/TRα heterodimers (FIG. 9C), and DR1 tk-CAT for RXRα/PPARγ heterodimer (FIG. 9B)) were transiently transfected into CV-1 cells. Cells were treated with or without ligands (ciglitazone, 10^−6 M; T3, 10^−7 M) in the presence or absence of Sulindac. CAT activity was determined.
Cells (1×10^5 cells/well) seeded in 24-well plates were transiently transfected using a modified calcium phosphate precipitation procedure as described (Kolluri, S. K. et al., Proc Natl Acad Sci USA 102 (7), 2525-2530 (2005); Cao, X., et al., Mol Cell Biol 24(22), 9705-9725 (2004)).

| PK profiles ([2]; preclinical study) | binding to RXRα by 19F NMR (RXRα LBD) | SMILES | inhibition of interaction of p85α with RXRα/Δ80 [1] | bioavailability ([2]; oral compared to intravenous formulation) | induction of PARP cleavage together with TNFα, compared with Sulindac (ZR-75-1 cells) | inhibition of basal AKT activation (AKT) | COX-inhibiting activity (COX) | cells showing caspase-8 staining, CA-AKT-transfected (HepG2 cells) [%] | cells showing caspase-8 staining, nontransfected (HepG2 cells) | transactivation of RXR/TR heterodimers (CAT activity) (RXRα/TRα heterodimers) |
| --- | --- | --- | --- | --- | --- | --- | --- | --- | --- | --- |
| desirable PK profiles | confirmed | CC1=C(CC(=O)O)c2cc(F)ccc2/C1=C\c1ccc(C(C)C)cc1 [K-80003, (Z)-2-(3-(4-Iso-propylbenzylidene)-6-fluoro-2-methyl-3H-inden-1-yl)acetic acid] | much more effective than Sulindac; also recorded: potently inhibited | increased bioavailaility in oral compared to intravenous formulation | more effective than Sulindac |  |  |  |  |  |
|  |  | CSc1ccc(/C=C2/C(C)=C(CC(=O)O)c3cc(F)ccc32)cc1 [Sulindac, (Z)-2-(3-(4-(Methylthio)benzylidene)-6-fluoro-2-methyl-3H-inden-1-yl)acetic acid] |  |  |  | Significant inhibition | potent COX inhibitor | 15 | About 80% | not RXR/TR heterodimers |
